Earlier results, collected in patent publication US20240374528A1, “[…] DOSAGE FORMS COMPRISING DEUTETRABENAZINE” (AUSPEX PHARMACEUTICALS, INC., priority 2021, published 2024).

Conditions: relative to tetrabenazine; U.S. Pat. No. 8,524,733

Structure (SMILES): [2H]C([2H])([2H])Oc1cc2c(cc1OC([2H])([2H])[2H])[C@H]1CC(=O)[C@H](CC(C)C)CN1CC2 [Deutetrabenazine, (RR,SS)-1,3,4,6,7,11b-hexahydro-9,10-di(methoxy-D3)-3-(2-methylpropyl)-2H-benzo[a]quinolizin-2-one]
- half-life of active metabolites: increased half-life of its active metabolites
